Experiment [1] addresses T1, ERα (Homo sapiens, UniProt P03372).
T1 sequence (P03372 1-595): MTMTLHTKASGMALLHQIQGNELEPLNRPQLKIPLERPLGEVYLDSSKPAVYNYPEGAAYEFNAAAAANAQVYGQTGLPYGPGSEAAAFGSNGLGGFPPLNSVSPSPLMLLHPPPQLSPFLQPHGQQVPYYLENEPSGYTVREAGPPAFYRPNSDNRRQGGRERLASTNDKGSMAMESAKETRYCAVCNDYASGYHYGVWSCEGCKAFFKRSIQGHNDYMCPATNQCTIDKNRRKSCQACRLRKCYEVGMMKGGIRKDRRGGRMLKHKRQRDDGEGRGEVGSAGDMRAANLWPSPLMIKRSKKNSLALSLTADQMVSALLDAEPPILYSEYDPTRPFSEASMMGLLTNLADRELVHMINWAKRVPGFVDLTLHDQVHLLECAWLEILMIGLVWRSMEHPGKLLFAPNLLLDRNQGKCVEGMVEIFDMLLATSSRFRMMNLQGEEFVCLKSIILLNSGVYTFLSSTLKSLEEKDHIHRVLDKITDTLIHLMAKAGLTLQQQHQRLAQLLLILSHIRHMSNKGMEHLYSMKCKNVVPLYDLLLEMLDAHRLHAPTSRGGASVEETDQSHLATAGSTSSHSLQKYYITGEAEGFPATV
Kind of experiment: fluorescent polarization competitive binding assay, ERα. Set-up: purchased PanVera Corp; host or cells: baculovirus expression. The note with it: for IC50: class symbol NC.

The target of experiment [2] is T2, ERβ (Homo sapiens, UniProt Q92731). Kind of experiment: fluorescent polarization competitive binding assay, ERβ. Set-up: purchased PanVera Corp; host or cells: baculovirus expression. The note with it: for IC50: class symbol NC.
Target sequence in this assay (Q92731 whole entry): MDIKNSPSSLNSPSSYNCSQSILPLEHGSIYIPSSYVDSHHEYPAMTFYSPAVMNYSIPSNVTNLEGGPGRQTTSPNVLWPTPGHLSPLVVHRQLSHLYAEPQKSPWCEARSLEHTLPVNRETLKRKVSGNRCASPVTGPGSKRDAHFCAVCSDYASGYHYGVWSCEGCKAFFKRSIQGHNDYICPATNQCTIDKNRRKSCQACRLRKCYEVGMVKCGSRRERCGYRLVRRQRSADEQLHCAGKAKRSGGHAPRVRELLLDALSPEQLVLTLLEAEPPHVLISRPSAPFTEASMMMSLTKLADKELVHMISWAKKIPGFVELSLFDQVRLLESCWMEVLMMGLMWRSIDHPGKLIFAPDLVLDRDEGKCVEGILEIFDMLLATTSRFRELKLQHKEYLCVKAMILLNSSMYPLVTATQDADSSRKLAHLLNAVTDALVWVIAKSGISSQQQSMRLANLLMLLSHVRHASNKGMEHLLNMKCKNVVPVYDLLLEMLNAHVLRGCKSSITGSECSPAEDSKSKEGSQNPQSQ
Experiment [3] concerns the target T1, ERα. Particulars: cited from earlier work.
Experiment [4] addresses T2, ERβ. Particulars: cited from earlier work.
Target sequence in this assay (Q92731 whole entry, species assumed): as the sequence (Q92731 whole entry) above

Results on seven compounds are retold here after US20120269793A1, “PHYTOESTROGENIC FORMULATIONS FOR ALLEVIATION OR PREVENTION OF HAIR LOSS” (University of Southern California, priority 2010, published 2012).

For `Cc1oc2cc(O)ccc2c(=O)c1-c1cc2ccccc2o1` [Compd 4], the IC50 at ERα [1] and on ERβ [2] was above 1000 µM throughout. Moreover, at ERβ [2], the “binding to ERβ / the receptor (in words)” value is listed as “either very weak or no binding”.
For the compound `Oc1ccc([C@H]2COc3cc(O)ccc3C2)cc1` [S-equol], on ERα [3], the “binding affinity for ERα compared to ERβ” value is on record as 10 fold less and the “relative binding affinity for ERα compared to 17β-estradiol” value is 49.2 fold less. Moreover, on ERβ [4], the Kd – broadly, the free concentration of one partner at which half of the binding sites on the other are occupied at equilibrium, for simple one-to-one binding – was 0.0007 µM and the “binding to ERβ relative to 17β-estradiol” value is recorded as “approximately 20%”.
For the compound `O=c1nc2n(c3cc4ccccc4cc13)Cc1ccccc1-2` [Compd 12], on ERβ [2], the “binding to ERβ / the receptor (in words)” value was “either very weak or no binding”.
On to `O=c1oc2cc(OCc3cccc(O)c3)ccc2c2c1CCC2` [Compd 10], for which the IC50 – broadly, the point on the concentration scale where inhibition reaches its midpoint – at ERα [1] is above 1000 µM. Besides, on ERβ [2], the “binding to ERβ / the receptor (in words)” value is reported as “either very weak or no binding” and the concentration for half-maximal inhibition (IC50) was above 1000 µM.
With `Oc1ccc([C@@H]2COc3cc(O)ccc3C2)cc1` [R-equol], the “relative binding affinity for ERα compared to 17β-estradiol” value on ERα [3] is on record as 210.6 fold less. For the same compound, the “binding to ERβ, R-equol enantiomer, fold less” value on ERβ [4] is “approximately 100 fold less”.
On ERα [1], `Oc1ccc(C2COc3cc(O)ccc3C2)cc1` (stereo not shown) [Compd 2] came in with a 50% inhibitory concentration (IC50) above 1000 µM.
Take `CC(=O)[C@H]1CC[C@H]2[C@@H]3CCC4=CC(=O)CC[C@]4(C)[C@H]3CC[C@]12C` [progesterone, reference compound]: the “binding to ERα (in words)” value on ERα [1] is listed as “does not bind”. Besides, the “binding to ERβ / the receptor (in words)” value at ERβ [2] is reported as “does not bind”.
